In PubChem BioAssay AID248 (DTP/NCI, 2004):
Several values for one entry are separate records, joined by “and”; a condition that tells them apart may be missing. Equal values may be shown once. Inconclusive results and toxic doses are left out. Square brackets hold non-standard residues; d marks the D form. Peptide text beside a SMILES is read from it. * marks the point of attachment. ξ: configuration not given here. Cbz = O=C(OCc1ccccc1)*; OBn = c1ccc(CO*)cc1; ξP = O=C(O)C1CCCN1

Test system: L1210 leukemia ip in BDF1 mice, survival T/C
Test: NCI In Vivo Anticancer Drug Screen. Data for tumor model L1210 Leukemia (intraperitoneal) in B6D2F1 (BDF1) mice
Conditions: endpoint: mean survival time, higher = longer survival
How it was run: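 Survival endpoint. Drug-treated group vs vehicle group, expressed as T divided by C. Tumor passaged by transplantation.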

[1] = dose: 100.0 mg/kg/injection, schedule: Q01DX001 (ip), vehicle: saline with Tween-80
[2] = dose: 200.0 mg/kg/injection, schedule: Q01DX001 (ip), vehicle: Klucel (hydroxypropylcellulose) (HPC)
[3] = dose: 200.0 mg/kg/injection, schedule: Q01DX001 (ip), vehicle: saline with Tween-80
[4] = dose: 400.0 mg/kg/injection, schedule: Q01DX001 (ip), vehicle: Klucel (hydroxypropylcellulose) (HPC)
[5] = dose: 100.0 mg/kg/injection, schedule: Q01DX009 (ip), vehicle: Klucel (hydroxypropylcellulose) (HPC)
[6] = dose: 200.0 mg/kg/injection, schedule: Q01DX009 (ip), vehicle: Klucel (hydroxypropylcellulose) (HPC)
[7] = dose: 400.0 mg/kg/injection, schedule: Q01DX009 (ip), vehicle: Klucel (hydroxypropylcellulose) (HPC)
[8] = dose: 100.0 mg/kg/injection, schedule: Q04DX003 (ip), vehicle: Klucel (hydroxypropylcellulose) (HPC)
[9] = dose: 200.0 mg/kg/injection, schedule: Q04DX003 (ip), vehicle: Klucel (hydroxypropylcellulose) (HPC)
[10] = dose: 100.0 mg/kg/injection, schedule: Q04DX003 (ip), vehicle: saline with Tween-80
[11] = dose: 200.0 mg/kg/injection, schedule: Q04DX003 (ip), vehicle: saline with Tween-80
[12] = dose: 400.0 mg/kg/injection, schedule: Q04DX003 (ip), vehicle: saline with Tween-80
[13] = dose: 100.0 mg/kg/injection, schedule: Q04DX002 (ip), vehicle: Klucel (hydroxypropylcellulose) (HPC)
[14] = dose: 200.0 mg/kg/injection, schedule: Q04DX002 (ip), vehicle: Klucel (hydroxypropylcellulose) (HPC)
[15] = dose: 400.0 mg/kg/injection, schedule: Q04DX002 (ip), vehicle: Klucel (hydroxypropylcellulose) (HPC)
[16] = dose: 400.0 mg/kg/injection, schedule: Q04DX003 (ip), vehicle: Klucel (hydroxypropylcellulose) (HPC)
[17] = dose: 100.0 mg/kg/injection, schedule: Q01DX001 (ip), vehicle: carboxymethylcellulose (CMC)
[18] = dose: 200.0 mg/kg/injection, schedule: Q01DX001 (ip), vehicle: carboxymethylcellulose (CMC)
[19] = dose: 400.0 mg/kg/injection, schedule: Q01DX001 (ip), vehicle: carboxymethylcellulose (CMC)
[20] = dose: 50.0 mg/kg/injection, schedule: Q01DX001 (ip), vehicle: saline with Tween-80

In the case of `CC(=O)NC1C(CO)OC(n2cnc3c(N)nc(Cl)nc32)C1O` (stereo unspecified), the T/C (dose: 100.0 mg/kg/injection, schedule: Q01DX001 (ip), vehicle: Klucel (hydroxypropylcellulose) (HPC)) is reported as 94 % of control, the T/C [1] is reported as 105 % of control and the T/C [2] is reported as 96 % of control. The T/C [3] was 107 % of control, the T/C [4] was 91 % of control and the T/C (dose: 400.0 mg/kg/injection, schedule: Q01DX001 (ip), vehicle: saline with Tween-80) was 100 % of control.
For `CCOC(=O)c1ccc(NC(=O)Oc2cc(C)ccc2C(C)C)cc1`, the T/C [5] was 94 % of control, the T/C [6] was 94 % of control and the T/C [7] was 94 % of control.
With `Clc1ccc(N2CCN(CCCN3CCN(c4cccc(Cl)c4)CC3)CC2)cc1` the T/C [8] was 88 % of control and the T/C [9] was 91 % of control.
`CC(=O)Nc1ccc(Cc2ccc(NC(C)=O)cc2)cc1` was tested, and the T/C (dose: 75.0 mg/kg/injection, schedule: Q01DX001 (ip), vehicle: Klucel (hydroxypropylcellulose) (HPC)) was 93 % of control, the T/C [10] was 101 % of control and the T/C (dose: 150.0 mg/kg/injection, schedule: Q01DX001 (ip), vehicle: Klucel (hydroxypropylcellulose) (HPC)) was 100 % of control. The T/C [11] was 93 % of control, the T/C (dose: 300.0 mg/kg/injection, schedule: Q01DX001 (ip), vehicle: Klucel (hydroxypropylcellulose) (HPC)) was 98 % of control and the T/C [12] was 97 % of control.
`O=C1NCCCN1` was tested, and the T/C (dose: 100.0 mg/kg/injection, schedule: Q04DX003 (ip), vehicle: saline sonified) was 104 % of control, the T/C (dose: 200.0 mg/kg/injection, schedule: Q04DX003 (ip), vehicle: saline sonified) was 102 % of control and the T/C (dose: 400.0 mg/kg/injection, schedule: Q04DX003 (ip), vehicle: saline sonified) was 101 % of control.
For `CCCNC(=O)Oc1cccc(NC(=O)OC)c1`, the T/C [10] was 93 % of control, the T/C [11] was 97 % of control and the T/C [12] was 103 % of control.
`O=C(O)COc1ccccc1C(=O)O` was tested, and the T/C (dose: 5.0 mg/kg/injection, schedule: Q01DX001 (ip), vehicle: saline) was 100 % of control, the T/C (dose: 10.0 mg/kg/injection, schedule: Q01DX001 (ip), vehicle: saline) was 100 % of control and the T/C (dose: 20.0 mg/kg/injection, schedule: Q01DX001 (ip), vehicle: saline) was 96 % of control. The T/C (dose: 20.0 mg/kg/injection, schedule: Q04DX002 (ip), vehicle: Klucel (hydroxypropylcellulose) (HPC)) was 88 % of control, the T/C (dose: 40.0 mg/kg/injection, schedule: Q01DX001 (ip), vehicle: saline) was 96 % of control and the T/C (dose: 40.0 mg/kg/injection, schedule: Q04DX002 (ip), vehicle: Klucel (hydroxypropylcellulose) (HPC)) was 98 % of control. For the same compound, the T/C (dose: 80.0 mg/kg/injection, schedule: Q04DX002 (ip), vehicle: Klucel (hydroxypropylcellulose) (HPC)) was 100 % of control, the T/C [5] was 89 % of control and the T/C [13] was 95 % of control. The T/C [6] was 86 % of control, the T/C [14] was 98 % of control and the T/C [7] was 89 % of control. For the same compound, the T/C [15] was 103 % of control.
In the case of `COC(=O)/C=C\C(=O)OC`, the T/C [8] is reported as 95 % of control, the T/C [9] is reported as 100 % of control and the T/C [16] is reported as 100 % of control.
In the case of `NNc1ccccc1C(=O)O`, the T/C (dose: 50.0 mg/kg/injection, schedule: Q01DX001 (ip), vehicle: carboxymethylcellulose (CMC)) is reported as 94 % of control, the T/C [17] is reported as 94 % of control and the T/C [18] is reported as 105 % of control. The T/C [19] was 94 % of control.
With `Brc1ncc2ccccc2c1Br` the T/C [8] was 108 % of control and the T/C [9] was 94 % of control.
With `COc1ccccc1C(=O)NC(=S)Nc1ccc(Cl)c(Cl)c1` the T/C [5] was 96 % of control and 87 % of control, the T/C [13] was 95 % of control and 88 % of control and the T/C [8] was 94 % of control. The T/C [2] was 86 % of control, the T/C [6] was 96 % of control and 106 % of control and the T/C [14] was 98 % of control and 91 % of control. The T/C [9] was 92 % of control, the T/C [4] was 107 % of control and the T/C [7] was 102 % of control. For the same compound, the T/C [15] was 98 % of control and 91 % of control and the T/C [16] was 102 % of control.
`c1ccc(-n2ncc3ccccc32)cc1` was tested, and the T/C [20] was 100 % of control, the T/C [1] was 100 % of control and the T/C [3] was 96 % of control.
In the case of `c1ccc(-c2csnn2)cc1`, the T/C [18] is reported as 91 % of control and the T/C [19] is reported as 115 % of control.
For `O=C(NCC(=O)N1CCCC1C(=O)OCc1ccccc1)OCc1ccccc1` (stereo not drawn) (Cbz-Gly-[ξP]-OBn), the T/C [8] was 106 % of control, the T/C [9] was 106 % of control and the T/C [16] was 102 % of control.
With `CC(=O)c1ccccc1[N+](=O)[O-]` the T/C [10] was 107 % of control, the T/C [11] was 96 % of control and the T/C [12] was 94 % of control.
`COc1ccc(/C=N/NC(=O)c2ccccc2N)cc1` was tested, and the T/C [13] was 98 % of control, the T/C [14] was 106 % of control and the T/C [15] was 106 % of control.
`CCOc1ccc(/C=C/c2cc[n+](C)cc2)cc1OC` was tested, and the T/C (dose: 25.0 mg/kg/injection, schedule: Q01DX001 (ip), vehicle: saline with Tween-80) was 108 % of control, the T/C [20] was 95 % of control and the T/C [1] was 93 % of control.
For `CC(=O)OCC1OC(n2cc(C(F)(F)F)c(=O)[nH]c2=O)CC1OC(C)=O` (stereo unspecified), the T/C (dose: 20.0 mg/kg/injection, schedule: Q01DX009 (oral), vehicle: saline) was 116 % of control, the T/C (dose: 20.0 mg/kg/injection, schedule: Q01DX011 (ip), vehicle: saline) was 116 % of control and the T/C (dose: 40.0 mg/kg/injection, schedule: Q01DX009 (oral), vehicle: saline) was 116 % of control. For the same compound, the T/C (dose: 40.0 mg/kg/injection, schedule: Q01DX011 (ip), vehicle: saline) was 118 % of control, the T/C (dose: 45.0 mg/kg/injection, schedule: Q01DX Z (oral), vehicle: saline) was 105 % of control and the T/C (dose: 65.0 mg/kg/injection, schedule: Q01DX Z (oral), vehicle: saline) was 87 % of control. For the same compound, the T/C (dose: 80.0 mg/kg/injection, schedule: Q01DX009 (oral), vehicle: saline) was 118 % of control, the T/C (dose: 80.0 mg/kg/injection, schedule: Q01DX011 (ip), vehicle: saline) was 122 % of control and the T/C (dose: 100.0 mg/kg/injection, schedule: Q01DX Z (oral), vehicle: saline) was 109 % of control. For the same compound, the T/C (dose: 150.0 mg/kg/injection, schedule: Q01DX011 (oral), vehicle: saline) was 168 % of control, the T/C (dose: 160.0 mg/kg/injection, schedule: Q01DX009 (oral), vehicle: saline) was 155 % of control and the T/C (dose: 160.0 mg/kg/injection, schedule: Q01DX011 (ip), vehicle: saline) was 159 % of control. For the same compound, the T/C (dose: 300.0 mg/kg/injection, schedule: Q01DX011 (oral), vehicle: saline) was 153 % of control and the T/C (dose: 480.0 mg/kg/injection, schedule: Q01DX Z (ip), vehicle: saline) was 115 % of control.
In the case of `Nc1nc(N)c(N=Nc2c(Br)cc(S(N)(=O)=O)cc2Br)c(N)n1`, the T/C [17] is reported as 94 % of control, the T/C [18] is reported as 94 % of control and the T/C [19] is reported as 100 % of control.
In the case of `O=c1oc2ccc(O)cc2c2ccccc12`, the T/C (dose: 100.0 mg/kg/injection, schedule: Q04DX003 (ip), vehicle: saline) is reported as 105 % of control, the T/C (dose: 200.0 mg/kg/injection, schedule: Q04DX003 (ip), vehicle: saline) is reported as 97 % of control and the T/C (dose: 400.0 mg/kg/injection, schedule: Q04DX003 (ip), vehicle: saline) is reported as 103 % of control.
With `C(=N\N=C\c1ccccc1)/c1ccccc1` the T/C (dose: 100.0 mg/kg/injection, schedule: Q01DX009 (ip), vehicle: saline with Tween-80) was 97 % of control, the T/C [13] was 98 % of control and the T/C (dose: 200.0 mg/kg/injection, schedule: Q01DX009 (ip), vehicle: saline with Tween-80) was 100 % of control. For the same compound, the T/C [14] was 91 % of control, the T/C (dose: 400.0 mg/kg/injection, schedule: Q01DX009 (ip), vehicle: saline with Tween-80) was 100 % of control and the T/C [15] was 102 % of control.
For `CC(=O)NCCCOc1ccc(N)cc1`, the T/C (dose: 100.0 mg/kg/injection, schedule: Q01DX001 (ip), vehicle: saline) was 96 % of control, the T/C (dose: 200.0 mg/kg/injection, schedule: Q01DX001 (ip), vehicle: saline) was 102 % of control and the T/C (dose: 400.0 mg/kg/injection, schedule: Q01DX001 (ip), vehicle: saline) was 105 % of control.
For `CCCC(=O)c1cc(O)c(O)cc1O`, the T/C (dose: 50.0 mg/kg/injection, schedule: Q01DX009 (ip), vehicle: saline with Tween-80) was 96 % of control, the T/C [10] was 95 % of control and the T/C [11] was 105 % of control.
In the case of `O=C(c1cccc(C(=O)N(c2ccccc2)C2CCCCC2)c1)N(c1ccccc1)C1CCCCC1`, the T/C [5] is reported as 100 % of control, the T/C [6] is reported as 94 % of control and the T/C [7] is reported as 98 % of control.
In the case of `CCOC(=O)NOS(=O)(=O)c1ccc([N+](=O)[O-])cc1`, the T/C [10] is reported as 100 % of control, the T/C [11] is reported as 96 % of control and the T/C [12] is reported as 98 % of control.
